Experimental data from US5824771A, “Cyclic CRF agonists” (The Salk Institute for Biological Studies, priority 1997, dated 1998).
Bridge positions count the residues as written; N and C are the ends. Square brackets hold non-standard residues; d marks the D form. Ends that are not written are not given here. Peptide text beside a SMILES is read from it. Nle = CCCC[C@H](N)C(=O)O

Key:
[1] = system: rat anterior pituitary cells; experiment: In vitro stimulation of ACTH and β-endorphin secretion by cultured rat pituitary cells, potency compared with oCRF (Standard) or r/hCRF; assay type: cell-based; conditions: for stimulation of secretion of ACTH and β-END-LI (testing by the general procedure), in words: general procedure of Example 1; for in vitro potency to stimulate secretion of ACTH relative to the Standard: relative to the laboratory Standard (synthetic oCRF), cultured rat pituitary cells, limits in parentheses; for in vitro biopotency, comparison in words: compared with the Standard or with a named analog
Experimental: (§1) The cyclic CRF agonists are examined for their effects on the secretion of ACTH and β-endorphin in vitro and also in vivo. […] In vivo testing is carried out using the general procedure set forth in C. Rivier et al., Science, 218, 377 (1982).

[2] = Lowering of blood pressure on peripheral or iv administration; assay type: in vivo; conditions: for lowering of blood pressure when administered peripherally, in words: peripheral administration; for lowering of blood pressure on iv injection, in words: iv injection / administered intravenously
[3] = system: ACTH and β-END-LI secretion; experiment: Secretion of ACTH and β-END-LI on administration of the peptide (in vivo testing)
Experimental: as §1

| Compound | stimulation of secretion of ACTH and β-END-LI (testing by the general procedure), in words [1] | lowering of blood pressure when administered peripherally, in words [2] | stimulation of secretion of ACTH and β-END-LI on administration of the peptide, in words [3] | also measured |
| --- | --- | --- | --- | --- |
| CCCC[C@H](NC(=O)[C@H](CCC(=O)O)NC(=O)[C@@H](NC(=O)[C@H](CCCC)NC(=O)[C@H](CC(N)=O)NC(=O)[C@H](CCCNC(=N)N)NC(=O)[C@H](CC(C)C)NC(=O)[C@H](CC(C)C)NC(=O)[C@H](Cc1c[nH]cn1)NC(=O)[C@@H](Cc1ccccc1)NC(=O)[C@@H](NC(=O)[C@H](CC(C)C)NC(=O)[C@H](CC(=O)O)NC(=O)[C@@H](NC(=O)[C@H](CO)NC(C)=O)[C@@H](C)CC)[C@@H](C)O)[C@@H](C)CC)C(=O)N[C@@H](C)C(=O)N[C@@H](CCCNC(=N)N)C(=O)N[C@@H](CC(N)=O)C(=O)N[C@@H](CCC(=O)O)C(=O)N[C@@H](CC(N)=O)C(=O)N[C@@H](CCC(N)=O)C(=O)N[C@@H](CCCNC(=N)N)C(=O)N[C@@H](CCC(=O)O)C(=O)N[C@H]1CCC(=O)NCCCC[C@@H](C(=O)N[C@@H](CC(N)=O)C(=O)N[C@@H](CCCNC(=N)N)C(=O)N[C@@H](CCCCN)C(=O)N[C@@H](Cc2ccc(O)cc2)C(=O)N[C@@H](CC(C)C)C(=O)N[C@@H](CC(=O)O)C(=O)N[C@@H](CCC(=O)O)C(=O)N[C@H](C(N)=O)C(C)C)NC(=O)[C@@H](C)NC(=O)[C@H](C)NC1=O [Example 16 F, (cyclo 30-33)[Ac-Ser^7, D-Phe^12, Nle^18,21, Glu^30, D-Ala^32, Lys^33]-carp urotensin(7-41)] (Ac-SIDLT[dF]HLLRN[Nle]IE[Nle]ARNENQREEA[dA]KNRKYLDEV-NH2; lactam 24-27) | stimulate the secretion of ACTH and β-END-LI | very significant lowering of blood pressure | – | – |
| CCCC[C@H](NC(=O)[C@H](CCCCN)NC(=O)[C@H](C)NC(=O)[C@H](CCCNC(=N)N)NC(=O)[C@H](Cc1c[nH]cn1)NC(=O)[C@@H](NC(=O)[C@H](CCCC)NC(=O)[C@H](CC(N)=O)NC(=O)[C@H](CCCNC(=N)N)NC(=O)[C@H](CC(C)C)NC(=O)[C@H](CCCC)NC(=O)[C@H](Cc1c[nH]cn1)NC(=O)[C@@H](Cc1ccccc1)NC(=O)[C@@H](NC(=O)[C@H](CC(C)C)NC(=O)[C@H](CC(=O)O)NC(=O)[C@@H](NC(=O)[C@H](CO)NC(C)=O)[C@@H](C)CC)[C@@H](C)O)[C@@H](C)CC)C(=O)N[C@@H](CCC(=O)O)C(=O)NCC(=O)N[C@@H](CCC(=O)O)C(=O)N[C@@H](CCCNC(=N)N)C(=O)N[C@@H](CCC(=O)O)C(=O)N[C@H]1CCC(=O)NCCCC[C@@H](C(=O)N[C@@H](CC(N)=O)C(=O)N[C@@H](CCCNC(=N)N)C(=O)N[C@@H](CC(N)=O)C(=O)N[C@@H](CC(C)C)C(=O)N[C@@H](CCCC)C(=O)N[C@@H](CC(=O)O)C(=O)N[C@@H](CCC(=O)O)C(=O)N[C@H](C(N)=O)C(C)C)NC(=O)[C@@H](CC(C)C)NC(=O)[C@H](C)NC1=O [Example 16 G, (cyclo 30-33)[Ac-Ser^7, D-Phe^12, Nle^14,18,24,38, Glu^30, D-Leu^32, Lys^33]-sole urotensin(7-41)] (Ac-SIDLT[dF]H[Nle]LRN[Nle]IHRAK[Nle]EGEREEA[dL]KNRNL[Nle]DEV-NH2; lactam 24-27) | stimulate the secretion of ACTH and β-END-LI | very significant lowering of blood pressure | – | – |
| CCCC[C@H](NC(=O)[C@H](CCCCN)NC(=O)[C@H](C)NC(=O)[C@H](CCCNC(=N)N)NC(=O)[C@H](Cc1c[nH]cn1)NC(=O)[C@@H](NC(=O)[C@H](CCCC)NC(=O)[C@H](CC(N)=O)NC(=O)[C@H](CCCNC(=N)N)NC(=O)[C@H](CC(C)C)NC(=O)[C@H](CCCC)NC(=O)[C@H](Cc1c[nH]cn1)NC(=O)[C@@H](Cc1ccccc1)NC(=O)[C@@H](NC(=O)[C@H](CC(C)C)NC(=O)[C@H](CC(=O)O)NC(=O)[C@@H](NC(=O)[C@H](CO)NC(C)=O)[C@@H](C)CC)[C@@H](C)O)[C@@H](C)CC)C(=O)N[C@@H](CCC(=O)O)C(=O)NCC(=O)N[C@@H](CCC(=O)O)C(=O)N[C@@H](CCCNC(=N)N)C(=O)N[C@@H](CCC(=O)O)C(=O)N[C@H]1CCC(=O)NCCCC[C@@H](C(=O)N[C@@H](CC(N)=O)C(=O)N[C@@H](CCCNC(=N)N)C(=O)N[C@@H](CC(N)=O)C(=O)N[C@@H](CC(C)C)C(=O)N[C@@H](CC(C)C)C(=O)N[C@@H](CC(=O)O)C(=O)N[C@@H](CCC(=O)O)C(=O)N[C@H](C(N)=O)C(C)C)NC(=O)[C@@H](CCC(N)=O)NC(=O)[C@H](C)NC1=O [Example 16 H, (cyclo 30-33)[Ac-Ser^7, D-Phe^12, Nle^14,18,24, Glu^30, D-Gln^32, Lys^33]-flounder urotensin(7-41)] (Ac-SIDLT[dF]H[Nle]LRN[Nle]IHRAK[Nle]EGEREEA[dQ]KNRNLLDEV-NH2; lactam 24-27) | stimulate the secretion of ACTH and β-END-LI | very significant lowering of blood pressure | – | – |
| (cyclo 29-32)[D-Leu^11, Nle^17, Glu^29, Lys^32 ]-sauvagine [Example 3 C] | stimulates the secretion of ACTH and β-END-LI | very significant lowering of blood pressure | – | in vitro potency to stimulate secretion of ACTH relative to the Standard [1]: about 5.73 (2.61-13.51) times |
| (cyclo 30-33)[Ac-Agl(Me,Ac)^7, D-Phe^12, Nle^21,38, Glu^30, Lys^33 ]-r/hCRF(7-41) [Example 19 G] | – | – | stimulates the secretion of ACTH and β-END-LI | in vitro potency to stimulate secretion of ACTH relative to the Standard [1]: about 3.4 times |
| (cyclo 30-33)[Ac-D/L-Agl(Me,For)^7, D-Phe^12, Nle^21,38, Glu^30, Lys^33 ]-r/hCRF(7-41) [Example 19 D] | – | – | stimulates the secretion of ACTH and β-END-LI | in vitro biopotency, comparison in words [1]: less potent than the Standard |
| (cyclo 30-33)[Ac-D/L-Agl^7, D-Phe^12, Nle^21,38, Glu^30, Lys^33 ]-r/hCRF(7-41) [Example 19] | – | – | stimulates the secretion of ACTH and β-END-LI | – |
| (cyclo 30-33)[Ac-D/L-MeAgl^7, D-Phe^12, Nle^21,38, Glu^30, Lys^33 ]-r/hCRF(7-41) [Example 19 B] | – | – | stimulate the secretion of ACTH and β-END-LI | in vitro biopotency, comparison in words [1]: less potent than the Standard |
| (cyclo 30-33)[Ac-MeAgl(For)^7, D-Phe^12, Nle^21,38, Glu^30, Lys^33 ]-r/hCRF(7-41) [Example 19 E] | – | – | stimulates the secretion of ACTH and β-END-LI | – |
| (cyclo 30-33)[Ac-Pro^4, D-Phe^12, CML^14, Nle^21,38, Glu^30, D-His^32, Lys^33 ]-r/hCRF(4-41) [Example 9 A] | – | – | stimulates the secretion of ACTH and β-END-LI | lowering of blood pressure on iv injection, in words [2]: lowers blood pressure |
| (cyclo 30-33)[Ac-Pro^4, D-Phe^12, CML^15, Nle^21,38, Glu^30, D-His^32, Lys^33 ]-r/hCRF(4-41) [Example 9] | – | – | stimulates the secretion of ACTH and β-END-LI | lowering of blood pressure on iv injection, in words [2]: lowers blood pressure |
| (cyclo 30-33)[Ac-Pro^4, D-Phe^12, CML^17, Nle^21,38, Glu^30, D-His^32, Lys^33 ]-r/hCRF (4-41) [Example 9 E] | – | – | stimulates the secretion of ACTH and β-END-LI | lowering of blood pressure on iv injection, in words [2]: lowers blood pressure |
| (cyclo 30-33)[Ac-Pro^4, D-Phe^12, Nle^21,38, Glu^30, D-His^32, Lys^33 ]-oCRF(4-41) [Example 3] | highly stimulates the secretion of ACTH and β-END-LI | very significant lowering of blood pressure | – | – |
| (cyclo 30-33)[Ac-Pro^4, D-Pro^5, D-Phe^12, Nle^21,38, CML^27, Glu^30, D-His^32, Lys^33 ]-r/hCRF(4-41) [Example 9 C D-Pro^5 analog] | – | – | stimulates the secretion of ACTH and β-END-LI | in vitro potency to stimulate secretion of ACTH relative to the Standard [1]: about 7 times |
| (cyclo 30-33)[Ac-Ser(OMe)^7, D-Phe^12, Nle^21,38, Glu^30, Lys^33 ]-r/hCRF(7-41) [Example 19 I] | – | – | stimulates the secretion of ACTH and β-END-LI | – |
| SEDPP[Nle]SIDLT[dF]H[Nle]LRN[Nle]IHRAK[Nle]EGEREEA[dQ]KNRNLLDEV-NH2 (lactam 30-33) [Example 3 H, (cyclo 30-33)[Nle^6,14,18,24, D-Phe^12, Glu^30, D-Gln^32, Lys^33]-flounder urotensin] | stimulates the secretion of ACTH and β-END-LI | very significant lowering of blood pressure | – | – |
| SEEPP[Nle]SIDLT[dF]H[Nle]LRN[Nle]IHRAK[Nle]EGEREEA[dL]KNRNLLDEV-NH2 (lactam 30-33) [Example 3 E, (cyclo 30-33)[Nle^6,14,18,24, D-Phe^12, Glu^30, D-Leu^32, Lys^33]-maggy urotensin] | stimulates the secretion of ACTH and β-END-LI | very significant lowering of blood pressure | – | – |
| SEEPP[Nle]SIDLT[dF]H[Nle]LRN[Nle]IHRAK[Nle]EGEREEA[dL]KNRNL[Nle]DEV-NH2 (lactam 30-33) [Example 3 G, (cyclo 30-33)[Nle^6,14,18,24,381 D-Phe^12 Glu^301 D-Leu^32, Lys^33]-sole urotensin] | stimulates the secretion of ACTH and β-END-LI | very significant lowering of blood pressure | – | – |
